Test results: ChEMBL document CHEMBL3885881, “DrugMatrix”

Organism: Rattus norvegicus
Assay: DrugMatrix - Regimen: Daily Repeat
Format: toxicity, organism-based, Sprague-Dawley
Design: regimen Daily Repeat, gender Male, age 6-8 weeks
Settings: in vivo, po, route oral GAVAGE, vehicle .5 % CMC; for ABSOLUTE BASOPHIL / ABSOLUTE EOSINOPHIL / ABSOLUTE LYMPHOCYTE / ABSOLUTE MONOCYTE / ABSOLUTE SEGMENTED NEUTROPHIL / BASOPHIL / EOSINOPHIL / ERYTHROCYTE COUNT / HEMATOCRIT / HEMOGLOBIN / LEUKOCYTE COUNT / LYMPHOCYTE / MEAN CORPUSCULAR HEMOGLOBIN / MEAN CORPUSCULAR HEMOGLOBIN CONCENTRATION / MEAN CORPUSCULAR VOLUME / MONOCYTE / NEUTROPHIL / NUCLEATED RED BLOOD CELLS / PLATELET COUNT: tissue Blood; for ALANINE AMINOTRANSFERASE / ALBUMIN / ALKALINE PHOSPHATASE / ASPARTATE AMINOTRANSFERASE / BLOOD UREA NITROGEN / CARBON DIOXIDE / CHLORIDE / CHOLESTEROL / CREATINE PHOSPHOKINASE / CREATININE / GLUCOSE / LACTATE DEHYDROGENASE / LIPASE / PHOSPHORUS / POTASSIUM / SODIUM / TOTAL BILIRUBIN / TOTAL PROTEIN / URIC ACID: tissue Plasma
[1] = 100 mg/kg, 72 h, dose level Low, time 3 day
[2] = 100 mg/kg, 120 h, dose level Low, time 5 day
[3] = 1000 mg/kg, 72 h, dose level High, time 3 day
[4] = 1000 mg/kg, 120 h, dose level High, time 5 day

## CC1CN(c2cc3c(cc2F)c(=O)c(C(=O)O)cn3-c2ccc(F)cc2F)CCN1 (configuration not stated) [TEMAFLOXACIN]
[1]
  ABSOLUTE BASOPHIL: 0 CELLS/uL
  ABSOLUTE EOSINOPHIL: 0 CELLS/uL
  ABSOLUTE LYMPHOCYTE: 10703 CELLS/uL
  ABSOLUTE MONOCYTE: 236.33 CELLS/uL
  ABSOLUTE SEGMENTED NEUTROPHIL: 1027.33 CELLS/uL
  BASOPHIL: 0%
  EOSINOPHIL: 0%
  ERYTHROCYTE COUNT: 5.1 x10E6/uL
  HEMATOCRIT: 32.03%
  HEMOGLOBIN: 12.13 G/DL
  LEUKOCYTE COUNT: 11.97 x10E3/uL
  LYMPHOCYTE: 88.33%
  MEAN CORPUSCULAR HEMOGLOBIN: 23.83 pg
  MEAN CORPUSCULAR HEMOGLOBIN CONCENTRATION: 37.93 G/DL
  MEAN CORPUSCULAR VOLUME: 62.83 fL
  MONOCYTE: 2.33%
  NEUTROPHIL: 9.33%
  NUCLEATED RED BLOOD CELLS: 0 /100WBC
  PLATELET COUNT: 1089.33 x10E3/uL
  ALANINE AMINOTRANSFERASE: 64.67 u/L
  ALBUMIN: 4.07 G/DL
  ALKALINE PHOSPHATASE: 401.33 u/L
  ASPARTATE AMINOTRANSFERASE: 92.33 u/L
  BLOOD UREA NITROGEN: 15.67 mg/dL
  CARBON DIOXIDE: 35 mmol/L
  CHLORIDE: 98.67 MEQ/L
  CHOLESTEROL: 91 mg/dL
  CREATINE PHOSPHOKINASE: 525.67 u/L
  CREATININE: 0.24 mg/dL
  GLUCOSE: 143 mg/dL
  LACTATE DEHYDROGENASE: 134.67 u/L
  LIPASE: 9 u/L
  PHOSPHORUS: 12.2 mg/dL
  POTASSIUM: 5.94 MEQ/L
  SODIUM: 143.63 MEQ/L
  TOTAL BILIRUBIN: 0.23 mg/dL
  TOTAL PROTEIN: 6.3 G/DL
  URIC ACID: 0.53 mg/dL
[2]
  ABSOLUTE BASOPHIL: 0 CELLS/uL
  ABSOLUTE EOSINOPHIL: 33 CELLS/uL
  ABSOLUTE LYMPHOCYTE: 9070.33 CELLS/uL
  ABSOLUTE MONOCYTE: 218.67 CELLS/uL
  ABSOLUTE SEGMENTED NEUTROPHIL: 878 CELLS/uL
  BASOPHIL: 0%
  EOSINOPHIL: 0.33%
  ERYTHROCYTE COUNT: 5.56 x10E6/uL
  HEMATOCRIT: 33.53%
  HEMOGLOBIN: 12.97 G/DL
  LEUKOCYTE COUNT: 10.2 x10E3/uL
  LYMPHOCYTE: 88.67%
  MEAN CORPUSCULAR HEMOGLOBIN: 23.37 pg
  MEAN CORPUSCULAR HEMOGLOBIN CONCENTRATION: 38.7 G/DL
  MEAN CORPUSCULAR VOLUME: 60.37 fL
  MONOCYTE: 2%
  NEUTROPHIL: 9%
  NUCLEATED RED BLOOD CELLS: 0 /100WBC
  PLATELET COUNT: 1110.67 x10E3/uL
  ALANINE AMINOTRANSFERASE: 48.67 u/L
  ALBUMIN: 4.43 G/DL
  ALKALINE PHOSPHATASE: 449.67 u/L
  ASPARTATE AMINOTRANSFERASE: 74.33 u/L
  BLOOD UREA NITROGEN: 15.33 mg/dL
  CARBON DIOXIDE: 37 mmol/L
  CHLORIDE: 98 MEQ/L
  CHOLESTEROL: 89.67 mg/dL
  CREATINE PHOSPHOKINASE: 298.67 u/L
  CREATININE: 0.34 mg/dL
  GLUCOSE: 138.67 mg/dL
  LACTATE DEHYDROGENASE: 126 u/L
  LIPASE: 7.67 u/L
  PHOSPHORUS: 12.27 mg/dL
  POTASSIUM: 5.95 MEQ/L
  SODIUM: 144.33 MEQ/L
  TOTAL BILIRUBIN: 0.23 mg/dL
  TOTAL PROTEIN: 6.37 G/DL
  URIC ACID: 0.8 mg/dL
[3]
  ABSOLUTE BASOPHIL: 0 CELLS/uL
  ABSOLUTE EOSINOPHIL: 0 CELLS/uL
  ABSOLUTE LYMPHOCYTE: 8968.67 CELLS/uL
  ABSOLUTE MONOCYTE: 91.33 CELLS/uL
  ABSOLUTE SEGMENTED NEUTROPHIL: 740 CELLS/uL
  BASOPHIL: 0%
  EOSINOPHIL: 0%
  ERYTHROCYTE COUNT: 5.3 x10E6/uL
  HEMATOCRIT: 32.17%
  HEMOGLOBIN: 12.37 G/DL
  LEUKOCYTE COUNT: 9.8 x10E3/uL
  LYMPHOCYTE: 91.33%
  MEAN CORPUSCULAR HEMOGLOBIN: 23.43 pg
  MEAN CORPUSCULAR HEMOGLOBIN CONCENTRATION: 38.47 G/DL
  MEAN CORPUSCULAR VOLUME: 60.8 fL
  MONOCYTE: 1%
  NEUTROPHIL: 7.67%
  NUCLEATED RED BLOOD CELLS: 0 /100WBC
  PLATELET COUNT: 1214 x10E3/uL
  ALANINE AMINOTRANSFERASE: 59 u/L
  ALBUMIN: 3.67 G/DL
  ALKALINE PHOSPHATASE: 384 u/L
  ASPARTATE AMINOTRANSFERASE: 87 u/L
  BLOOD UREA NITROGEN: 13 mg/dL
  CARBON DIOXIDE: 35.33 mmol/L
  CHLORIDE: 99 MEQ/L
  CHOLESTEROL: 84.33 mg/dL
  CREATINE PHOSPHOKINASE: 684.67 u/L
  CREATININE: 0.26 mg/dL
  GLUCOSE: 138.33 mg/dL
  LACTATE DEHYDROGENASE: 131 u/L
  LIPASE: 9 u/L
  PHOSPHORUS: 11.53 mg/dL
  POTASSIUM: 5.74 MEQ/L
  SODIUM: 143.93 MEQ/L
  TOTAL BILIRUBIN: 0.2 mg/dL
  TOTAL PROTEIN: 5.97 G/DL
  URIC ACID: 0.37 mg/dL
[4]
  ABSOLUTE BASOPHIL: 0 CELLS/uL
  ABSOLUTE EOSINOPHIL: 32 CELLS/uL
  ABSOLUTE LYMPHOCYTE: 12898.67 CELLS/uL
  ABSOLUTE MONOCYTE: 145 CELLS/uL
  ABSOLUTE SEGMENTED NEUTROPHIL: 424.33 CELLS/uL
  BASOPHIL: 0%
  EOSINOPHIL: 0.33%
  ERYTHROCYTE COUNT: 5.35 x10E6/uL
  HEMATOCRIT: 31.83%
  HEMOGLOBIN: 12.7 G/DL
  LEUKOCYTE COUNT: 13.5 x10E3/uL
  LYMPHOCYTE: 95.33%
  MEAN CORPUSCULAR HEMOGLOBIN: 23.77 pg
  MEAN CORPUSCULAR HEMOGLOBIN CONCENTRATION: 39.9 G/DL
  MEAN CORPUSCULAR VOLUME: 59.53 fL
  MONOCYTE: 1%
  NEUTROPHIL: 3.33%
  NUCLEATED RED BLOOD CELLS: 0 /100WBC
  PLATELET COUNT: 1130.67 x10E3/uL
  ALANINE AMINOTRANSFERASE: 52.33 u/L
  ALBUMIN: 3.8 G/DL
  ALKALINE PHOSPHATASE: 253 u/L
  ASPARTATE AMINOTRANSFERASE: 80.33 u/L
  BLOOD UREA NITROGEN: 13.67 mg/dL
  CARBON DIOXIDE: 33.33 mmol/L
  CHLORIDE: 100.33 MEQ/L
  CHOLESTEROL: 76.67 mg/dL
  CREATINE PHOSPHOKINASE: 375.67 u/L
  CREATININE: 0.32 mg/dL
  GLUCOSE: 145 mg/dL
  LACTATE DEHYDROGENASE: 188.33 u/L
  LIPASE: 8.33 u/L
  PHOSPHORUS: 11.47 mg/dL
  POTASSIUM: 5.93 MEQ/L
  SODIUM: 145.13 MEQ/L
  TOTAL BILIRUBIN: 0.2 mg/dL
  TOTAL PROTEIN: 5.77 G/DL
  URIC ACID: 0.83 mg/dL
